Our source for the GI50 and TGI values is PubChem BioAssay (NCI).

The GI50 is the concentration at which growth is held to half of that of the control. As a reminder, the TGI is the concentration giving total growth inhibition. Low values mean more potent growth arrest, high ones less potent growth arrest.

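Briefly, cells in 96-well plates were exposed to five compound concentrations for 48 h, and endpoints were estimated by linear interpolation. At the GI50, growth is halved. TGI is the concentration that stops growth completely.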

Test systems include ACHN renal; HOP-92 NSCLC; SNB-19 CNS; HS 578T breast; COLO 205 colon; BT-549 breast; A549 NSCLC; SK-MEL-5 melanoma; OVCAR-5 ovarian; UACC-62 melanoma.
Assay in all cases: DTP human tumour cell line panel, 48 h

In the case of `COc1cc(OC)c(C(=O)/C=C/c2cccc(C#N)c2)c(OC)c1`, the GI50 was 1.13 µM in the assay with ACHN renal; 0.701 µM in the assay with HOP-92 NSCLC; 1.67 µM with SNB-19 CNS; 1.59 µM with HS 578T breast; 1.79 µM in the assay with COLO 205 colon; 0.611 µM with BT-549 breast. For the same molecule, the GI50 is 1.43 µM in the assay on A549 NSCLC, 1.55 µM with SK-MEL-5 melanoma, 2.26 µM in the assay with OVCAR-5 ovarian and 1.22 µM in the assay on UACC-62 melanoma. For the same molecule, the TGI was determined as 4.47 µM in the assay with ACHN renal; 3.26 µM with HOP-92 NSCLC; 6.61 µM in the assay with SNB-19 CNS; 44.9 µM in the assay with HS 578T breast; 6.04 µM with COLO 205 colon; 2.5 µM with BT-549 breast. For the same molecule, the TGI with A549 NSCLC amounted to 6.1 µM; in the assay with SK-MEL-5 melanoma, 6.16 µM; with OVCAR-5 ovarian, 7.95 µM; with UACC-62 melanoma, 4.92 µM.
Regarding `COc1ccc(C2=CC(c3ccc(OC)cc3Br)N3C=CSC3=N2)cc1` (stereo unspecified), the GI50 in the assay on ACHN renal is 2.39 µM; in the assay with HOP-92 NSCLC it was 5.78 µM; in the assay with SNB-19 CNS, 9.79 µM; in the assay with HS 578T breast, 14.4 µM; in the assay on COLO 205 colon, 11.3 µM; with BT-549 breast, 3.19 µM. Also, the GI50 in the assay on A549 NSCLC was 10.5 µM; in the assay on SK-MEL-5 melanoma, 4.32 µM; in the assay with OVCAR-5 ovarian, 12.4 µM; in the assay with UACC-62 melanoma, 2.79 µM. Besides, the TGI in the assay on ACHN renal worked out at 5.88 µM; with HOP-92 NSCLC it was 41.8 µM; with SNB-19 CNS, 25.3 µM; in the assay on HS 578T breast, 66.5 µM; in the assay on COLO 205 colon, 25.1 µM; in the assay with BT-549 breast it was 12.1 µM. Also, the TGI in the assay on A549 NSCLC came to 39 µM; in the assay with SK-MEL-5 melanoma it was 16.6 µM; with OVCAR-5 ovarian, 32.3 µM; with UACC-62 melanoma, 10.7 µM.
Consider `Cc1cn2c(/C=C3/C(=O)Nc4ccc(O)cc43)c(C)nc2s1`, for which the GI50 in the assay with ACHN renal is 5.72 µM; with HOP-92 NSCLC, 0.373 µM; in the assay with SNB-19 CNS, 5.47 µM; in the assay on HS 578T breast it was 2.68 µM; with COLO 205 colon it was 3.58 µM; in the assay with BT-549 breast, 5.82 µM. Further, the GI50 was 19.9 µM in the assay on A549 NSCLC, 1.4 µM in the assay on SK-MEL-5 melanoma, 28.3 µM in the assay with OVCAR-5 ovarian and 1.16 µM with UACC-62 melanoma. Moreover, the total growth inhibition concentration (TGI) is 62.8 µM in the assay on ACHN renal; 8.87 µM with HOP-92 NSCLC; over 100 µM with SNB-19 CNS; 18.2 µM with HS 578T breast; over 100 µM with COLO 205 colon; 57.7 µM in the assay with BT-549 breast. The concentration for total growth inhibition (TGI) with A549 NSCLC is over 80.6 µM; with SK-MEL-5 melanoma it was 7.74 µM; in the assay with OVCAR-5 ovarian it was over 100 µM; in the assay with UACC-62 melanoma, 11.4 µM.
Take `C=C1CC[C@@H]2[C@](C)(COC(C)=O)[C@H](OC(C)=O)CC[C@@]2(C)[C@@H]1CC(Nc1ccc(S(=O)(=O)Nc2ccc(Cl)nn2)cc1)C1=CCOC1=O` (stereo partly specified): the GI50 is 1.68 µM in the assay with ACHN renal; 2.7 µM in the assay with HOP-92 NSCLC; 1.91 µM with SNB-19 CNS; 6.17 µM in the assay with HS 578T breast; 1.46 µM in the assay with COLO 205 colon; 1.58 µM in the assay with BT-549 breast. In addition, the GI50 was 2.96 µM in the assay with A549 NSCLC, 1.6 µM in the assay on SK-MEL-5 melanoma, 2.01 µM with OVCAR-5 ovarian and 1.49 µM in the assay on UACC-62 melanoma. In addition, the TGI in the assay on ACHN renal was 3.32 µM; with HOP-92 NSCLC, 7.89 µM; with SNB-19 CNS, 3.91 µM; in the assay on HS 578T breast, over 100 µM; in the assay with COLO 205 colon, 3.16 µM; with BT-549 breast, 3.14 µM. Moreover, the total growth inhibition concentration (TGI) in the assay with A549 NSCLC worked out at 10.7 µM; in the assay with SK-MEL-5 melanoma it was 3.13 µM; in the assay on OVCAR-5 ovarian, 4.16 µM; in the assay with UACC-62 melanoma, 3.86 µM.
As for `CC(C)(C)c1[nH]nc2c1C(c1cc3ccccc3[nH]c1=O)Nc1cc(C(=O)OCc3ccccc3)ccc1N2` (stereo unspecified), the GI50 was 4.25 µM with ACHN renal; 1.35 µM with HOP-92 NSCLC; 3.28 µM with SNB-19 CNS; 7.45 µM in the assay on HS 578T breast; 3.54 µM in the assay with COLO 205 colon; 3.35 µM in the assay with BT-549 breast. Further, the GI50 in the assay with A549 NSCLC was 3.33 µM; in the assay with OVCAR-5 ovarian, 4.05 µM; in the assay on UACC-62 melanoma, 1.9 µM. Also, the TGI was over 100 µM in the assay with ACHN renal; 8.34 µM with HOP-92 NSCLC; over 100 µM in the assay on SNB-19 CNS; over 100 µM in the assay on HS 578T breast; 10.4 µM in the assay with COLO 205 colon; over 100 µM in the assay with BT-549 breast. Also, the TGI in the assay with A549 NSCLC was over 100 µM; in the assay with OVCAR-5 ovarian it was over 100 µM; in the assay on UACC-62 melanoma, 3.9 µM.
For the molecule `c1ccc2[nH]c(-c3cc(-c4ccc5c(c4)OCO5)n[nH]3)nc2c1`, the GI50 was 4.33 µM in the assay on ACHN renal; 5.92 µM with SNB-19 CNS; 3.8 µM in the assay on HS 578T breast; 4.78 µM with COLO 205 colon; 2.12 µM in the assay with BT-549 breast; 4.23 µM in the assay with A549 NSCLC. The GI50 was 1.53 µM in the assay on SK-MEL-5 melanoma, 14.9 µM in the assay with OVCAR-5 ovarian and 3.08 µM in the assay on UACC-62 melanoma. The total growth inhibition concentration (TGI) in the assay with ACHN renal was found to be 19 µM; in the assay with SNB-19 CNS, 25.6 µM; with HS 578T breast it was 52.3 µM; with COLO 205 colon, 18.5 µM; in the assay on BT-549 breast it was 13 µM; with A549 NSCLC, 19.7 µM. The TGI was determined as 3.55 µM in the assay with SK-MEL-5 melanoma, 34.3 µM in the assay with OVCAR-5 ovarian and 14.7 µM in the assay on UACC-62 melanoma.
